Results from PMC6152131, “Pharmacokinetic Study of Biotransformation Products from an Anxiolytic Fraction of Tilia americana” (Molecules : A Journal of Synthetic Chemistry and Natural …, 2017).

Experiments:
[1] = Plasma concentration after a single oral dose of the anxiolytic fraction (HPLC); assay type: in vivo, ICR mice; conditions: oral 200 mg/kg anxiolytic fraction, immediately after administration and over 24 h
Experimental: Eleven groups of ten animals each were randomly formed. All animals were orally administered with 200 mg/kg of the active fraction. Animals were anaesthetized with ether, and blood samples were obtained from the retroorbital sinus with a heparinized capillary, each group was examined at different times (0, 5, 10, 15, 30, 60, 120, 240, 480, 720, and 1440 min) after the active fraction was administered. […] Then the plasma samples were frozen and lyophilized. The dry plasma was subsequently used to extract and measure the concentration of the flavonoids and biotransformation products.
(§1) Plasma dried pulverized samples were extracted with methanol (HPLC grade, Merck). The extracts were filtered with Teflon membrane dimensions 0.45 μm by 13 mm (Millex®-LCR); 20 μL of each filtered sample was injected into the HPLC equipment. The measurements were performed in a (Waters corporation, Milford, CT, USA) 2695 HPLC with a diode array detector (Waters 2996) and processed with the Empower Pro 1.0 software. A Chromolith Performance® RP-18e 100 × 4.6 mm (Merck KGaA, Darmstadt, Germany) was used. The mobile phase consisted of a mixture of acetonitrile and water with the proportion 55:45 and a flow rate of 1 mL/min. The concentrations of the flavonoids and the biotransformation products were obtained by comparison with a pre-built calibration curve at λ = 220 nm.
To evaluate the suitability of the assay for the pharmacokinetic studies, 200 mg/kg of the active fraction was orally administered to the animals. Ten animals were used in each group at different times (0, 5, 10, 15, 30, 60, 120, 240, 480, 720, and 1440 min). Pharmacokinetic calculations were performed using the observed data. All data was subsequently processed using the PKSolver add-in program for Microsoft Excel written in Visual Basic for Applications. All values obtained were expressed in mean ± standard deviation.

[2] = Stability of flavonoids and biotransformation products in mouse plasma under different handling conditions; assay type: in vitro ADME, mice; conditions: for Accuracy Bias 0 h / Observed Conc. 0 h / Accuracy Bias 8 h / Observed Conc. 8 h / Accuracy Bias 24 h / Observed Conc. 24 h: room temperature (25 °C); for Observed Conc. 0 h / Observed Conc. 8 h / Observed Conc. 24 h / Observed Conc. Autosampler (4 °C; 8 h) / Observed Conc. Long-term (−70 °C; 1 month): n = 6; for Accuracy Bias Autosampler (4 °C; 8 h) / Accuracy Bias Long-term (−70°C; 1 month) / Observed Conc. Autosampler (4 °C; 8 h) / Observed Conc. Long-term (−70 °C; 1 month): storage stability
Experimental: as §1
[…] The investigation enclosed here expected manipulation conditions during all the sample storage and process periods, which included the stability data from the freeze/thaw, bench-top, autosampler, and long–term stability tests.
For all stability studies, fresh QC samples were evaluated by using a freshly prepared standard curve for the measurements. The concentrations obtained from all the stability studies were compared with the fresh QC samples, and the percentage concentration deviation was calculated. The analytes were considered stable in the mouse plasma when the concentration difference between the freshly prepared samples and the stability samples was less than 15%.

[3] = tested on: intestinal epithelial cells; parameters: method as in PMID 25761590; conditions: compared with the aglycone kaempherol; cited from earlier work
[4] = high nominal conc. (7.00; 44.37; 4.50; 31.25 µg/mL)
[5] = low nominal conc. (1.75; 11.02; 1.12; 1.95 µg/mL)
[6] = medium nominal conc. (3.50; 22.18; 2.24; 7.81 µg/mL)

In the case of `O=C(/C=C/c1ccc(O)cc1)OC[C@H]1O[C@@H](Oc2c(-c3ccc(O)cc3)oc3cc(O)cc(O)c3c2=O)[C@H](O)[C@@H](O)[C@@H]1O` [Tiliroside, tiliroside], the “flavonoids found in the plasma after oral administration” value [1] is reported as “not found”, the “Accuracy Bias 0 h” value ([2]; high nominal conc.) is reported as 1.35% and the “Observed Conc. 0 h” value ([2]; high nominal conc. (rutin 7.00; quercetin glucoside, quercitrin, tiliroside 44.37; kaempferol 4.50; m-HPAA, p-HPAA, DOPAC 31.25 µg/mL)) is reported as 43.77 ± 4.28 µg/mL. For the same compound, the “Accuracy Bias 0 h” value ([2]; low nominal conc.) was 4.59%, the “Observed Conc. 0 h” value ([2]; low nominal conc. (rutin 1.75; quercetin glucoside, quercitrin, tiliroside 11.02; kaempferol 1.12; m-HPAA, p-HPAA, DOPAC 1.95 µg/mL)) was 10.54 ± 0.74 µg/mL and the “Accuracy Bias 0 h” value ([2]; medium nominal conc.) was 3.36%. For the same compound, the “Observed Conc. 0 h” value ([2]; medium nominal conc. (rutin 3.50; quercetin glucoside, quercitrin, tiliroside 22.18; kaempferol 2.24; m-HPAA, p-HPAA, DOPAC 7.81 µg/mL)) was 21.44 ± 2.13 µg/mL, the “Accuracy Bias 8 h” value ([2]; high nominal conc.) was −0.64% and the “Observed Conc. 8 h” value [2, 4] was 44.65 ± 4.37 µg/mL. The “Accuracy Bias 8 h” value ([2]; low nominal conc.) was 6.26%, the “Observed Conc. 8 h” value [2, 5] was 10.33 ± 0.61 µg/mL and the “Accuracy Bias 8 h” value ([2]; medium nominal conc.) was −2.95%. For the same compound, the “Observed Conc. 8 h” value [2, 6] was 22.84 ± 2.57 µg/mL, the “Accuracy Bias 24 h” value ([2]; high nominal conc.) was 7.03% and the “Observed Conc. 24 h” value [2, 4] was 41.25 ± 2.04 µg/mL. For the same compound, the “Accuracy Bias 24 h” value ([2]; low nominal conc.) was 4.48%, the “Observed Conc. 24 h” value [2, 5] was 10.53 ± 0.79 µg/mL and the “Accuracy Bias 24 h” value ([2]; medium nominal conc.) was 7.14%. The “Observed Conc. 24 h” value [2, 6] was 20.60 ± 2.05 µg/mL, the “Accuracy Bias Autosampler (4 °C; 8 h)” value ([2]; high nominal conc.) was 3.66% and the “Accuracy Bias Long-term (−70°C; 1 month)” value ([2]; high nominal conc.) was 0.24%. The “Observed Conc. Autosampler (4 °C; 8 h)” value [2, 4] was 42.74 ± 3.40 µg/mL, the “Observed Conc. Long-term (−70 °C; 1 month)” value (shortened to “Observed Conc. Long-term”) [2, 4] was 44.26 ± 2.49 µg/mL and the “Accuracy Bias Autosampler (4 °C; 8 h)” value ([2]; low nominal conc.) was 3.97%. For the same compound, the “Accuracy Bias Long-term (−70°C; 1 month)” value ([2]; low nominal conc.) was 5.54%, the “Observed Conc. Autosampler (4 °C; 8 h)” value [2, 5] was 10.58 ± 0.81 µg/mL and the “Observed Conc. Long-term” value [2, 5] was 10.40 ± 0.99 µg/mL. For the same compound, the “Accuracy Bias Autosampler (4 °C; 8 h)” value ([2]; medium nominal conc.) was −3.45%, the “Accuracy Bias Long-term (−70°C; 1 month)” value ([2]; medium nominal conc.) was 3.42% and the “Observed Conc. Autosampler (4 °C; 8 h)” value [2, 6] was 22.94 ± 2.25 µg/mL. For the same compound, the “Observed Conc. Long-term” value [2, 6] was 21.41 ± 1.82 µg/mL and the “permeability to the intestinal epithelial cells” value [3] was “completely impermeable”.
